{"source": "patent US20240390438A1", "about": "“PROBIOTICS SEPARATED FROM RABBIT FECES AND FOOD CONTAINING PROBIOTICS” (AGENT Innovation Co., Ltd., priority 2021, published 2024)", "key": {"[1]": {"test_system": "Salmonella enterica", "assay": "Minimum inhibitory concentration and minimum bacterial concentration", "assay_type": "cell-based", "procedure": "Finally, 100 μL CFSs of the next three concentrations below MIC were taken to be plated on nutrient agar and then cultured at 37° C. for 48-72 hours. The concentrations of the CFSs that no colonies grown on nutrient agar were determined to be the minimum bacterial concentration (MBCs)."}, "[2]": {"test_system": "Colony LP2", "assay": "Antibiotic susceptibility test", "assay_type": "cell-based, Lactiplantibacillus Plantarum", "details": "96-well, 37 C 24 h, OD600", "description": "(§1) To test bacterial susceptibility to antibiotics, such as Aminoglycosides antibiotics, Sulfonamide antibiotics, Quinolone antibiotics, Ampicillin, Cefotaxime, Chloramphenicol, Erythromycin, Rifampicin and Tetracycline, the experimental protocol were as follow. Further, the Quinolone antibiotics comprise Ciprofloxacin, the Aminoglycosides antibiotics comprise Kanamycin and […], and the Sulfonamide antibiotics comprise Sulfamethoxazole. […] The initial absorbance at 600 nm (OD600) of each well was recorded. Then, the 96-well plates were placed at 37° C. and cultured for 24 hours. Next, the OD600 of each well was measured again to determine minimum inhibitory concentration."}, "[3]": {"test_system": "Colony LP19", "assay": "Antibiotic susceptibility test", "assay_type": "cell-based, Lactiplantibacillus Plantarum", "description": "as §1"}, "[4]": {"test_system": "Colony LP5", "assay": "Antibiotic susceptibility test", "assay_type": "cell-based, Lactiplantibacillus Plantarum", "description": "as §1"}, "[5]": {"test_system": "Colony PTA22", "assay": "Antibiotic susceptibility test", "assay_type": "cell-based, Lactiplantibacillus Plantarum", "description": "as §1"}, "[6]": {"test_system": "Colony LP1", "assay": "Antibiotic susceptibility test", "assay_type": "cell-based, Lactiplantibacillus Plantarum", "description": "as §1"}, "[7]": {"test_system": "Escherichia coli (ETEC)", "assay": "Agar diffusion method-2 (cell-free solution)", "assay_type": "cell-based", "details": "colonies as cell-free solution in holes of TSA; ddH2O control 8", "description": "(§2) Firstly, the CFSs (containing metabolites) were prepared. Besides, when probiotics break down fiber and convert the fiber into metabolites, the metabolites are postbiotics.\n(§3) Next, the pathogenic bacteria described above were also cultured with 37° C. until the concentration thereof reached 1×10^8 CFU/mL, respectively. 100 μL bacterial solutions of the pathogenic bacteria described above were evenly plated on Tryptone Soy Agar (TSA) and stay for 10 minutes. Then, tips were used to form several holes in the TSA. Subsequently, 100 μL bacterial solutions of the colonies described above were added into the holes and then cultured at 37° C. for 12 hours.\n(§4) This experiment is designed that the CFSs in the holes prevent the pathogenic bacteria on the plates from growing. Therefore, the larger zone indicates the better antibacterial effect."}, "[8]": {"test_system": "Staphylococcus aureus", "assay": "Agar diffusion method-2 (cell-free solution)", "assay_type": "cell-based", "details": "colonies as cell-free solution in holes of TSA; ddH2O control 8", "description": "as §2, §3, §4"}, "[9]": {"test_system": "Salmonella enterica", "assay": "Agar diffusion method-2 (cell-free solution)", "assay_type": "cell-based", "details": "colonies as cell-free solution in holes of TSA; ddH2O control 8", "description": "as §2, §3, §4"}, "[10]": {"test_system": "Shigella sonnei", "assay": "Agar diffusion method-2 (cell-free solution)", "assay_type": "cell-based", "details": "colonies as cell-free solution in holes of TSA; ddH2O control 8", "description": "as §2, §3, §4"}, "[11]": {"test_system": "Streptococcus pneumoniae", "assay": "Agar diffusion method-2 (cell-free solution)", "assay_type": "cell-based", "details": "colonies as cell-free solution in holes of TSA; ddH2O control 8", "description": "as §2, §3, §4"}, "[12]": {"test_system": "Pseudomonas aeruginosa", "assay": "Agar diffusion method-2 (cell-free solution)", "assay_type": "cell-based", "details": "colonies as cell-free solution in holes of TSA; ddH2O control 8", "description": "as §2, §3, §4"}, "[13]": {"test_system": "Bacillus cereus", "assay": "Agar diffusion method-2 (cell-free solution)", "assay_type": "cell-based", "details": "colonies as cell-free solution in holes of TSA; ddH2O control 8", "description": "as §2, §3, §4"}, "[14]": {"test_system": "Klebsiella pneumoniae", "assay": "Agar diffusion method-2 (cell-free solution)", "assay_type": "cell-based", "details": "colonies as cell-free solution in holes of TSA; ddH2O control 8", "description": "as §2, §3, §4"}, "[15]": {"test_system": "Escherichia coli (ETEC)", "assay": "Minimum inhibitory concentration and minimum bacterial concentration", "assay_type": "cell-based", "details": "antibiotics", "description": "(§5) Minimum inhibitory concentration (MIC) refers to the minimum concentration at which the development of bacteria can be blocked and antibacterial resistance can be observed after cultured. The lower MIC means the better effect on bacteria.\n(§6) The supernatants of the cultured colonies described above were collected, as cell-free solutions (CFSs), by centrifuge at 5000 rpm after cultured the colonies in a nutrient broth and shaking at 37° C. for 48 hours.\n(§7) Next, 100 μL each of the CFSs and 100 μL bacterial solutions of the pathogenic bacteria were respectively added to each well of a 96-well plate. Thus, the total volume in each well was 200 μL. The tested pathogenic bacteria included Salmonella enterica, Shigella sonnei, Klebsiella pneumoniae, Streptococcus pneumoniae, Bacillus cereus, Staphylococcus aureus, Pseudomonas aeruginosa, and Escherichia coli.\n(§8) As well, 100 μL each of the nutrient broth containing Ampicillin or Kanamycin and 100 μL bacterial solutions of the pathogenic bacteria were respectively added to each well of a 96-well plate. Thus, the total volume in each well was 200 μL.\n(§9) Then, initial values of OD600 in each well were recorded. Subsequently, the 96-well plates were cultured at 37° C. for 24 hours, and the OD600 values thereof were re-recorded for determining the MICs of each colony described above.\n(§10) Finally, 100 μL CFSs of the next three concentrations […] MIC were taken to be plated on nutrient agar and then cultured at 37° C. for 48-72 hours. The concentrations of the CFSs that no colonies grown on nutrient agar were determined to be the minimum bacterial concentration (MBCs)."}, "[16]": {"test_system": "Staphylococcus aureus", "assay": "Minimum inhibitory concentration and minimum bacterial concentration", "assay_type": "cell-based", "details": "antibiotics", "description": "as §5, §6, §7, §8, §9, §10"}, "[17]": {"test_system": "Shigella sonnei", "assay": "Minimum inhibitory concentration and minimum bacterial concentration", "assay_type": "cell-based", "details": "antibiotics", "description": "as §5, §6, §7, §8, §9, §10"}, "[18]": {"test_system": "Streptococcus pneumoniae", "assay": "Minimum inhibitory concentration and minimum bacterial concentration", "assay_type": "cell-based", "details": "antibiotics", "description": "as §5, §6, §7, §8, §9, §10"}, "[19]": {"test_system": "Pseudomonas aeruginosa", "assay": "Minimum inhibitory concentration and minimum bacterial concentration", "assay_type": "cell-based", "details": "antibiotics", "description": "as §5, §6, §7, §8, §9, §10"}, "[20]": {"test_system": "Bacillus cereus", "assay": "Minimum inhibitory concentration and minimum bacterial concentration", "assay_type": "cell-based", "details": "antibiotics", "description": "as §5, §6, §7, §8, §9, §10"}, "[21]": {"test_system": "Klebsiella pneumoniae", "assay": "Minimum inhibitory concentration and minimum bacterial concentration", "assay_type": "cell-based", "details": "antibiotics", "description": "as §5, §6, §7, §8, §9, §10"}, "[22]": {"details": "plated on nutrient agar 48-72 h"}}}
{"smiles": "NC[C@H]1O[C@H](O[C@H]2[C@H](O)[C@@H](O[C@H]3O[C@H](CO)[C@@H](O)[C@H](N)[C@H]3O)[C@H](N)C[C@@H]2N)[C@H](O)[C@@H](O)[C@@H]1O", "note": "[Kanamycin]", "values": [{"measurement": "MIC", "setting": "[1]; 24 h, read-out: MIC, Salmonella Enterica", "value": 64, "unit": "µg/mL"}, {"measurement": "MBC", "setting": "[1]; antibiotics, plated on nutrient agar 48-72 h", "value": 128, "unit": "µg/mL"}, {"measurement": "Minimum inhibitory concentration of the antibiotic to LP2", "setting": "[2]", "value": ">256", "unit": "µg/mL"}, {"measurement": "MIC", "setting": "[2]; Lactiplantibacillus plantarum, LP2, 24 h, read-out: Minimum inhibitory concentration of the antibiotic to LP2", "value": "> 256", "unit": "µg/mL"}, {"measurement": "Minimum inhibitory concentration of the antibiotic to LP19", "setting": "[3]; 96-well, 37 C 24 h, OD600", "value": ">256", "unit": "µg/mL"}, {"measurement": "MIC", "setting": "[3]; Lactiplantibacillus plantarum, LP19, 24 h, read-out: Minimum inhibitory concentration of the antibiotic to LP19, 96-well, 37 C 24 h, OD600", "value": "> 256", "unit": "µg/mL"}, {"measurement": "Minimum inhibitory concentration of the antibiotic to LP5", "setting": "[4]; 96-well, 37 C 24 h, OD600", "value": ">256", "unit": "µg/mL"}, {"measurement": "MIC", "setting": "[4]; Lactiplantibacillus plantarum, LP5, 24 h, read-out: Minimum inhibitory concentration of the antibiotic to LP5, 96-well, 37 C 24 h, OD600", "value": "> 256", "unit": "µg/mL"}, {"measurement": "Minimum inhibitory concentration of the antibiotic to PTA22", "setting": "[5]; 96-well, 37 C 24 h, OD600", "value": ">256", "unit": "µg/mL"}, {"measurement": "MIC", "setting": "[5]; Lactiplantibacillus plantarum, PTA22, 24 h, read-out: Minimum inhibitory concentration of the antibiotic to PTA22, 96-well, 37 C 24 h, OD600", "value": "> 256", "unit": "µg/mL"}, {"measurement": "Minimum inhibitory concentration of the antibiotic to LP1", "setting": "[6]; 96-well, 37 C 24 h, OD600", "value": ">256", "unit": "µg/mL"}, {"measurement": "MIC", "setting": "[6]; Lactiplantibacillus plantarum, LP1, 24 h, read-out: Minimum inhibitory concentration of the antibiotic to LP1, 96-well, 37 C 24 h, OD600", "value": "> 256", "unit": "µg/mL"}, {"measurement": "Inhibitory zone, Escherichia coli (ETEC)", "setting": "[7]", "value": 17, "unit": "mm"}, {"measurement": "Inhibitory zone, Staphylococcus Aureus", "setting": "[8]", "value": 23, "unit": "mm"}, {"measurement": "Inhibitory zone, Salmonella Enterica", "setting": "[9]", "value": 16, "unit": "mm"}, {"measurement": "Inhibitory zone, Shigella Sonnei", "setting": "[10]", "value": 20, "unit": "mm"}, {"measurement": "Inhibitory zone, Streptococcus Pneumoniae", "setting": "[11]", "value": 20, "unit": "mm"}, {"measurement": "Inhibitory zone, Pseudomonas Aeruginosa", "setting": "[12]", "value": 20, "unit": "mm"}, {"measurement": "Inhibitory zone, Bacillus Cereus", "setting": "[13]", "value": 20, "unit": "mm"}, {"measurement": "Inhibitory zone, Klebsiella Pneumoniae", "setting": "[14]", "value": 20, "unit": "mm"}, {"measurement": "MIC", "setting": "[15]; 37 C 24 h, OD600", "value": 64, "unit": "µg/mL"}, {"measurement": "MBC", "setting": "[15]; [22]", "value": 128, "unit": "µg/mL"}, {"measurement": "MIC", "setting": "[16]; 37 C 24 h, OD600", "value": 4, "unit": "µg/mL"}, {"measurement": "MBC", "setting": "[16]; [22]", "value": 8, "unit": "µg/mL"}, {"measurement": "MIC", "setting": "[17]; 37 C 24 h, OD600", "value": 16, "unit": "µg/mL"}, {"measurement": "MBC", "setting": "[17]; [22]", "value": 64, "unit": "µg/mL"}, {"measurement": "MIC", "setting": "[18]; 37 C 24 h, OD600", "value": 8, "unit": "µg/mL"}, {"measurement": "MBC", "setting": "[18]; [22]", "value": 16, "unit": "µg/mL"}, {"measurement": "MIC", "setting": "[19]; 37 C 24 h, OD600", "value": 8, "unit": "µg/mL"}, {"measurement": "MBC", "setting": "[19]; [22]", "value": 16, "unit": "µg/mL"}, {"measurement": "MIC", "setting": "[20]; 37 C 24 h, OD600", "value": 256, "unit": "µg/mL"}, {"measurement": "MBC", "setting": "[20]; [22]", "value": "> 256", "unit": "µg/mL"}, {"measurement": "MIC", "setting": "[21]; 37 C 24 h, OD600", "value": 32, "unit": "µg/mL"}, {"measurement": "MBC", "setting": "[21]; [22]", "value": 64, "unit": "µg/mL"}]}
